In PubChem BioAssay (NCI):
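Following 48 hours of exposure in 96-well plates, responses at five concentrations were used to interpolate endpoints linearly. The concentration for 50% growth inhibition is given as GI50. Definition used: TGI = concentration required for complete inhibition of growth.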 Where a SMILES comes first, the peptide text is derived from it. [ ]: non-standard residue; d: D form. The star is where a group is joined. Tyr(3-Br) = N[C@@H](Cc1ccc(O)c(Br)c1)C(=O)O; Boc = CC(C)(C)OC(=O)*

Tests used:
Test in all cases: growth of human tumour cells (NCI), 48 h
A549 NSCLC = system: A549 NSCLC
UACC-257 melanoma = system: UACC-257 melanoma
SK-OV-3 ovarian = system: SK-OV-3 ovarian
BT-549 breast = system: BT-549 breast
SF-295 CNS = system: SF-295 CNS
M14 melanoma = system: M14 melanoma
SN12C renal = system: SN12C renal
NCI-H226 lung = system: NCI-H226 lung
MDA-N = system: MDA-N
CCRF-CEM leukemia = system: CCRF-CEM leukemia

SMILES	TGI (A549 NSCLC) [µM]	TGI (UACC-257 melanoma) [µM]	TGI (SK-OV-3 ovarian) [µM]	TGI (BT-549 breast) [µM]	TGI (SF-295 CNS) [µM]	TGI (M14 melanoma) [µM]	TGI (SN12C renal) [µM]	TGI (NCI-H226 lung) [µM]	TGI (MDA-N) [µM]	TGI (CCRF-CEM leukemia) [µM]	GI50 (A549 NSCLC) [µM]	GI50 (UACC-257 melanoma) [µM]	GI50 (SK-OV-3 ovarian) [µM]	GI50 (BT-549 breast) [µM]	GI50 (SF-295 CNS) [µM]	GI50 (M14 melanoma) [µM]	GI50 (SN12C renal) [µM]	GI50 (NCI-H226 lung) [µM]	GI50 (MDA-N) [µM]	GI50 (CCRF-CEM leukemia) [µM]
CCOc1ccc(NC(=O)/C(=N\NC(C)(C)C)C2C(=O)Nc3ccccc3S2=O)cc1 (stereo not given)	> 100	> 100	> 100	> 100	> 100	> 100	> 100	> 100	> 100	> 100										
COc1cc(C)cc2c1c(=O)c1ccccc1n2C	> 100	> 100	> 100	> 100	45.3	> 100	> 100	81.5	> 100	68.5										
C[C@]12Cc3cnn(-c4ccc(F)cc4)c3NC1CC[C@@H]1C2CC[C@@]2(C)C1CC[C@@H]2O (stereo not given in full)	30.7	19.2	67.9	13.4	4.38	23.1	30.4	28	21.8	32.6										
Cc1cc(-c2nc3ccccc3s2)ccc1N	> 100	> 100	> 100	> 84.3	> 85.3	> 73.5	> 77.9	> 92	> 83.6	> 100										
Cc1cccc(CC(Cc2c(C)cccc2C(=O)O)C(=O)O)c1 (stereo not given)	> 100	> 100	> 100	> 100	> 100	> 100	> 100	> 100	> 100	> 100										
N#CC(C#N)=C(N)/C(C#N)=C/c1ccc2ccccc2n1	> 100	> 100	> 100	91.1	59.6	> 100	> 100	> 100	> 100	> 100										
O=C(Nc1nn(C(=O)c2ccc(Cl)cc2)c(=O)s1)c1ccc(Cl)cc1	> 100	> 100	> 100	> 100	> 100	> 100	> 100	> 100	> 100	> 100										
Cc1ccc(N=N/C(=N/NC(=O)c2cc(Cl)ccc2C(=O)c2ccccc2)c2ccc(N(CCC#N)CCC#N)cc2C)cc1	58.7	39.4	40	> 100	86.9	41	87.7	38	> 100	13.1										
CC(C)(C)OC(=O)N(O)CCCn1cnc2c(N)ncnc21	> 100	> 100	> 100	> 100	> 100	> 100	> 100	> 100	> 100	> 100										
Nc1nc(Cl)cc(OCC2(CO)CC(OCc3ccccc3)C2)n1 (stereo not given)											43	49.5	61.2	46	50.1	95	76.5	74	64.4	41.6
CCOC(=O)C(C(=O)c1ccccc1C(=O)OC)=P(c1ccccc1)(c1ccccc1)c1ccccc1	> 10	> 10	> 10	> 10	> 10	> 10	> 10	> 10	> 10	> 10										
CC(=O)NNc1nc(C)c(C(/C=C/c2ccc([N+](=O)[O-])cc2)=N/NC(N)=S)s1	> 100	> 100	> 100	> 100	> 100	> 100	> 100	> 100	> 100	> 100										
CC(C)(C)c1cc2c(O)c(c1)Cc1cc(C(C#N)(Cc3ccc4ccccc4c3)Cc3ccc4ccccc4c3)cc(c1O)Cc1cc(C(C)(C)C)cc(c1O)Cc1cc(C(C#N)(Cc3ccc4ccccc4c3)Cc3ccc4ccccc4c3)cc(c1O)C2	> 100	> 100	> 100	> 100	> 100	> 100	> 100	> 100	> 100	> 100										
Nc1ncc(Cl)c(NCC2(CO)CC(CCc3ccccc3)C2)n1 (stereo not given)	> 100	> 100	> 100	> 100	> 100	> 100	> 100	> 100	> 100	> 100										
COc1cc(C(=O)O[C@@H]2[C@@H](OC(=O)c3cc(OC)c(OC)c(OC)c3)[C@@H](OC)O[C@@H]3CO[C@@H](c4ccccc4)O[C@@H]23)cc(OC)c1OC	> 100	> 100	> 100	> 100	> 100	> 100	> 100	> 100	> 100	> 100										
CCN(CC)CCN1C(=O)c2c(c(-c3ccccc3)c3ccccc3c2-c2ccccc2)C1=O	> 100	> 100	> 100	> 100	> 100	> 100	> 100	> 100	> 100	> 100										
CN(C)Cc1cc(C(C)(C)C)ccc1-c1ccc(C(C)(C)C)cc1CN(C)C	> 100	> 100	> 100	> 100	> 100	> 100	> 100	> 100	> 100	> 100										

SMILES	TGI (A549 NSCLC) [µM]	TGI (UACC-257 melanoma) [µM]	TGI (SK-OV-3 ovarian) [µM]	TGI (BT-549 breast) [µM]	TGI (SF-295 CNS) [µM]	TGI (M14 melanoma) [µM]	TGI (SN12C renal) [µM]	TGI (NCI-H226 lung) [µM]	TGI (MDA-N) [µM]	TGI (CCRF-CEM leukemia) [µM]	GI50 (A549 NSCLC) [µM]	GI50 (UACC-257 melanoma) [µM]	GI50 (SK-OV-3 ovarian) [µM]	GI50 (BT-549 breast) [µM]	GI50 (SF-295 CNS) [µM]	GI50 (M14 melanoma) [µM]	GI50 (SN12C renal) [µM]	GI50 (NCI-H226 lung) [µM]	GI50 (MDA-N) [µM]	GI50 (CCRF-CEM leukemia) [µM]
Cc1cc(N=Nc2c(O)ccc3ccccc23)ccc1N=Nc1cccc([N+](C)(C)C)c1	> 52.2	> 63.5	> 75.3	15.7	51.9	59.3	> 80	30.2	> 100	> 34.3										
COC(=O)[C@H](Cc1ccc(O)c(Br)c1)NC(=O)[C@H](Cc1ccc(O)cc1)NC(=O)OC(C)(C)C (Boc-Tyr-[Tyr(3-Br)]-OMe)	> 100	> 100	> 100	98.1	> 100	> 100	> 100	> 100	> 100	51.2										
CCN(CC)CCNC(=O)c1ccc(I)cc1	> 100	> 100	> 100	> 100	> 100	> 100	> 100	> 100	> 100	> 100										
CCOC(=O)c1sc(N/N=C2\NC(=O)/C(=C/c3ccc([N+](=O)[O-])cc3)S2)nc1C	> 100	42.1	> 100	74.5	> 100	> 100	88.2	55.1	56.2	35.4										
COC(=O)C1c2c(c3ccccc3n2C(=O)OC)CCN2CCC1C(S(=O)(=O)c1ccccc1)C2=O (stereo not given)	> 100	> 100	> 100	> 100	> 100	> 100	> 100	> 100	> 100	> 100										
Cn1c(-c2cccs2)cc(-c2cccs2)c1-c1ccco1	> 100	> 100	> 100	> 100	> 100	> 84.5	> 100	> 100	> 100	> 100										
CCOC(=O)Cc1csc2[n+]1C(=O)/C(=C\c1cccc(Cl)c1Cl)S2	35.8	90.1	43.1	49	46.5	85.1	37.8	32	56.6	37.8										
Brc1c(C#CCC(c2ccccc2)(c2ccccc2)c2ccccc2)ccc(C#CCC(c2ccccc2)(c2ccccc2)c2ccccc2)c1Br	> 100	> 100	> 100	> 100	> 100	> 100	> 100	> 100	> 100	> 100										
CC(=O)Oc1cc2c(c3ncccc13)OC(C)(C)C2	27.4	29.5	> 100	> 100	36.1	27.5	25.9	33.1	10.9	28.7										
OC[C@]1(n2nc3ccccc3n2)OC[C@@H]1c1ccccc1	> 100	> 100	> 100	99.5	> 100	> 100	> 100	> 100	> 100	> 100										
CC(C)OP(=O)(OC(C)C)/C(C#N)=C/c1ccco1	> 100	> 100	> 100	> 100	> 100	> 100	> 100	> 100	> 100	> 100										
Cc1nn(C(=O)c2ccncc2)c2c1C(c1ccccc1)SC(N)=N2 (stereo not given)	> 10	> 10	> 10	> 10	> 10	> 10	> 10	> 10	> 10	> 10										
Cc1ccc2c(n1)C(=O)C=CC2=O	41.2	14.6	49.5	31.5	35.7	32.3	29.8	42.8	20.3	> 22.4										
Cc1nc2c(nc1C)-c1c(c3c(n1C)C(=O)CCC3)C(=O)C2=O	4.56	2.76	2.61	0.289	3.71	1.29	0.52	2.77	0.322	0.524										
COc1ccc2c(c1)/C(=C\c1c(C)nc3sc(C)cn13)C(=O)N2	> 100	> 78.2	23	45.8	> 20.4	> 100	> 100	> 87.6	0.46	2.32										
C=C(C)CC1(O)C(=O)C(OCC)=C1OCC (stereo not given)	> 100	> 100	> 100	> 100	> 100	> 100	> 100	> 100	> 100	> 100										
C/C(=N\Nc1nc2ccccc2n1C)c1cnccn1	> 100	> 25	> 100	> 100	> 100	6.53	> 100	> 100	> 100	6.17										
